{"source": "patent US20250161254A1", "about": "“USE OF RETINOIDS FOR TREATMENT OF ATRIAL FIBRILLATION” (NEW YORK UNIVERSITY, priority 2022, published 2025)", "key": {"CYP26": {"system": "CYP26", "details": "rodents; cited from earlier work"}, "TAC banded mice [1]": {"system": "TAC banded mice", "assay": "ECG in ATRA reversal study (delayed ATRA initiation)", "assay_type": "in vivo", "details": "TAC+dATRA vs TAC+dV"}, "TAC banded hearts [2]": {"system": "TAC banded hearts", "assay": "Atrial arrhythmia inducibility by atrial burst pacing", "assay_type": "in vivo, mice", "details": "TAC+ATRA hearts"}, "TAC banded hearts [3]": {"system": "TAC banded hearts", "assay": "Optical mapping of Langendorff-perfused hearts", "assay_type": "ex vivo, mice", "details": "Sham+V, TAC+V and TAC+ATRA hearts compared", "description": "Optical mapping of Langendorff-perfused hearts from Sham+V, TAC+V, and TAC+ATRA hearts. (FIG. 6A) Representative left atrial activation maps at 37° C. Hearts were paced at 100 ms basic cycle length (BCL) from the right atria. (FIG. 6B) Calculated LA conduction velocity (CV). (FIG. 6C) Calculated left ventricular CV (FIG. 6D) ECG tracing of sustained atrial arrythmia in TAC+V heart after atrial burst pacing protocol.^6 (FIG. 6E) Left atrial activation map of sustained atrial arrythmia shown in panel (FIG. 6D). Isochrones are drawn 1 ms apart. Data represent mean+S.E.M. n=4-5 per group. One-way ANOVA was used followed by Tukey's test for multiple comparisons to compare differences between experimental groups. * p-value<0.05, ** p-value<0.005, *** p-value<0.001, **** p-value<0.0001"}, "TLR/NF-KB signaling": {"system": "TLR/NF-KB signaling", "details": "diabetic kidney; cited from earlier work"}, "TAC banded mice [4]": {"system": "TAC banded mice", "assay": "Left atrial fibrosis burden, ImageJ analysis on Masson's trichrome stained sections", "assay_type": "in vivo", "details": "for collagen volume fraction in LA: 10 mg/kg/day IP, two weeks", "text": "(§1) TAC banding creates a fixed afterload obstruction in the systemic circulation and serves as an excellent model for drug testing as the surgically-induced coarctation cannot be reversed by medical therapy."}, "TAC banded mice [5]": {"system": "TAC banded mice", "assay": "ECG dose-response of ATRA in TAC banded mice", "assay_type": "in vivo"}, "TAC banded mice [6]": {"system": "TAC banded mice", "assay": "LA fibrosis burden in ATRA reversal study (delayed ATRA initiation)", "details": "delayed treatment with ATRA, TAC banding"}, "[7]": {"system": "Mice deficient in ALDH1A2", "details": "maternal supplementation with oral ATRA; cited from earlier work"}, "guinea pig HF model": {"system": "guinea pig HF model", "details": "cited from earlier work"}, "[8]": {"system": "trans-aortic constriction (TAC) banded mice", "assay": "Transthoracic echocardiography in TAC banded mice, ATRA protection study", "assay_type": "in vivo", "description": "as §1\nThe effect of TAC banding on left atrial function was measured next by using reservoir strain analysis. 8,30 Left atrial reservoir strain analysis is a sensitive modality to study left atrial mechanics of both relaxation (conduit strain) and contraction (contractile strain) in an angle-independent fashion."}, "chick embryos": {"system": "chick embryos", "details": "excess ATRA; cited from earlier work"}, "[9]": {"system": "dissociated neonatal rat cardiac fibroblasts", "details": "fibroblasts exposed to AngII; cited from earlier work"}, "[10]": {"system": "LA samples from TAC banded hearts", "assay": "RNA-seq on LA samples from TAC+V and TAC+ATRA hearts", "assay_type": "in vivo, mice", "text": "Activation of the AngII signaling pathway in the LA from pressure overload is a powerful inducer of inflammation, fibrosis, and Cx43 gap junction remodeling. Blockade of AngII signaling can reduce atrial fibrosis and partially rescued Cx43 remodeling. ^38,39"}, "[11]": {"system": "trans-aortic constriction (TAC) banded mice", "assay": "Electrocardiogram in TAC banded mice, ATRA protection study", "assay_type": "in vivo", "details": "two weeks", "text": "as §1\nOn ECG, the P wave duration is a measure of atrial activation time, the PR interval is a measure of atrial-to-ventricular activation time that includes the atrio-ventricular nodal conduction time, the QRS duration is a measure of ventricular activation time, and the HR-corrected QT (QTc) interval is a measure of ventricular repolarization time. […] In TAC banded mice treated with vehicle control (TAC+V), the heart rate (HR) was increased, the P wave, QRS wave, and QTc interval durations were prolonged, and the PR interval was shortened compared to Sham groups."}, "ALDHIA1 and ALDH1A2": {"system": "ALDHIA1 and ALDH1A2", "details": "in vivo; cited from earlier work"}, "[12]": {"details": "TAC+ATRA vs TAC+V over the dose range"}, "[13]": {"details": "TAC+ATRA vs TAC+V, 10 mg/kg/day IP, two weeks, 10 mg/kg/day"}, "[14]": {"details": "GO / REACTOME analysis of normalized genes"}, "[15]": {"details": "TAC+ATRA versus TAC+V LA, P<0.05"}, "[16]": {"details": "TAC+ATRA vs TAC+V, ATRA 10 mg/kg/day IP"}}, "note": "Entries after “also recorded” stand apart in the source; their conditions may differ."}
{"smiles": "CCC(CC)C(c1ccc(Nc2nc3ccccc3s2)cc1)n1cncn1", "note": "(stereo not shown) [talarozole]", "values": [{"measurement": "ATRA levels", "setting": "CYP26", "value": "effectively increase ATRA levels"}]}
{"smiles": "CC1=C(/C=C/C(C)=C/C=C/C(C)=C/C(=O)O)C(C)(C)CCC1", "note": "[ATRA, all-trans retinoic acid]", "values": [{"measurement": "P wave duration", "setting": "TAC banded mice [1]; 10 mg/kg/day IP started two weeks post-TAC, for two weeks, 10 mg/kg/day", "value": "significantly reduces"}, {"measurement": "PR interval", "setting": "TAC banded mice [1]; delayed treatment", "value": "not significantly different; also recorded: unchanged"}, {"measurement": "QRS duration", "setting": "TAC banded mice [1]; delayed treatment", "value": "not significantly different; also recorded: unchanged"}, {"measurement": "QTc interval", "setting": "TAC banded mice [1]; delayed treatment", "value": "not significantly different; also recorded: unchanged"}, {"measurement": "heart rate (HR)", "setting": "TAC banded mice [1]; delayed treatment", "value": "unchanged"}, {"measurement": "hearts with sustained atrial arrhythmia (lasting >30 sec) after atrial burst pacing", "setting": "TAC banded hearts [2]", "value": "0 out of 3"}, {"measurement": "left ventricular CV", "setting": "TAC banded hearts [3]", "value": "not significantly different"}, {"measurement": "production of inflammatory cytokines, chemokines, adhesion molecules and growth factors", "setting": "TLR/NF-KB signaling", "value": "block cytokine, chemokine, and growth factor production; also recorded: blocks production"}, {"measurement": "collagen volume fraction in LA", "setting": "TAC banded mice [4]; Sham+ATRA", "value": "5.3±0.1", "unit": "%"}, {"measurement": "left atrial interstitial and perivascular fibrosis", "setting": "TAC banded mice [4]; TAC+ATRA vs TAC+V", "value": "reduced; also recorded: limits"}, {"measurement": "collagen volume fraction in LA", "setting": "TAC banded mice [4]; TAC+ATRA", "value": "8.3±0.6", "unit": "%"}, {"measurement": "P wave duration shortening", "setting": "TAC banded mice [5]; 20 mg/kg dose compared with 10", "value": "no further shortening"}, {"measurement": "reduction of P wave prolongation, dose dependence", "setting": "TAC banded mice [5]; 2, 5, 10, 20 mg/kg daily IP, two weeks", "value": "dose-dependent fashion"}, {"measurement": "ventricular ectopy (potential cardiotoxicity)", "setting": "TAC banded mice [5]; ATRA 20 mg/kg daily IP", "value": "increased ventricular ectopy"}, {"measurement": "PR interval", "setting": "TAC banded mice [5]; [12]", "value": "no significant dose-dependent effect; also recorded: not significantly changed"}, {"measurement": "QRS duration", "setting": "TAC banded mice [5]; [12]", "value": "no significant dose-dependent effect; also recorded: not significantly changed"}, {"measurement": "heart rate", "setting": "TAC banded mice [5]; [12]", "value": "no significant dose-dependent effect; also recorded: not significantly changed"}, {"measurement": "ATRA dose of maximal P wave duration shortening", "setting": "TAC banded mice [5]; daily IP, two weeks", "value": 10, "unit": "m/kg"}, {"measurement": "interstitial and perivascular fibrosis", "setting": "TAC banded mice [6]", "value": "reverses"}, {"measurement": "atrial defects", "setting": "[7]", "value": "rescue the atrial defects"}, {"measurement": "left ventricular systolic function", "setting": "guinea pig HF model", "value": "improve"}, {"measurement": "ventricular fibrosis", "setting": "guinea pig HF model", "value": "reduce"}, {"measurement": "echocardiographic measurements of the LA and LV", "setting": "[8]; Sham+ATRA vs Sham+V, normal pressure conditions", "value": "no differences"}, {"measurement": "LV fractional shortening (FS)", "setting": "[8]; [13]", "value": "equally reduced"}, {"measurement": "LV longitudinal strain", "setting": "[8]; [13]", "value": "equally reduced"}, {"measurement": "left atrial mechanics (reservoir strain)", "setting": "[8]; [13]", "value": "significant improvement; also recorded: significantly improved"}, {"measurement": "left ventricular hypertrophy (LV wall thickness)", "setting": "[8]; [13]", "value": "increased in both TAC+V and TAC+ATRA cohorts"}, {"measurement": "atrial size", "setting": "chick embryos", "value": "developed enlarged atria"}, {"measurement": "TGF-β production", "setting": "[9]", "value": "reduces"}, {"measurement": "collagen secretion", "setting": "[9]", "value": "reduces"}, {"measurement": "proliferation", "setting": "[9]", "value": "reduces"}, {"measurement": "pathways of ECM production, pro-inflammatory signaling and vasoconstriction", "setting": "[10]; [14]", "value": "significantly downregulated"}, {"measurement": "pathways of mitochondrial energy production and cardiac/atrial development", "setting": "[10]; [14]", "value": "significantly upregulated"}, {"measurement": "left atrial Scn5a expression", "setting": "[10]; TAC banded hearts", "value": "increases"}, {"measurement": "differentially expressed transcripts", "setting": "[10]; [15]", "value": 4133, "unit": "transcripts"}, {"measurement": "transcripts downregulated", "setting": "[10]; [15]", "value": 2058, "unit": "transcripts"}, {"measurement": "transcripts upregulated", "setting": "[10]; [15]", "value": 2075, "unit": "transcripts"}, {"measurement": "DEGs moving in reciprocal direction to the [TAC vs Sham] dataset (normalization)", "setting": "[10]; [TAC+ATRA vs TAC+V] dataset", "value": 1987, "unit": "DEGs"}, {"measurement": "expression of PDGF-A and PDGF-B", "setting": "[10]; pressure overloaded LA", "value": "reduced expression"}, {"measurement": "expression of TLR2, NF-KB signaling components, NLRP3 and IL-1b", "setting": "[10]; pressure overloaded LA", "value": "downregulated"}, {"measurement": "expression of angiotensin converting enzyme (ACE)", "setting": "[10]; pressure overloaded LA", "value": "significantly downregulated"}, {"measurement": "ECG measurements", "setting": "[11]; Sham+ATRA vs Sham+V, normal pressure conditions, 10 mg/kg/day IP", "value": "no differences"}, {"measurement": "HR-corrected QT (QTc) interval", "setting": "[11]; [16]", "value": "prolonged equally; also recorded: unchanged"}, {"measurement": "P wave duration", "setting": "[11]; [16]", "value": "prevents P wave prolongation; also recorded: reduced to normal levels"}, {"measurement": "PR interval", "setting": "[11]; [16]", "value": "does not significantly alter; also recorded: unchanged"}, {"measurement": "QRS duration", "setting": "[11]; [16]", "value": "prolonged equally; also recorded: unchanged"}, {"measurement": "heart rate (HR)", "setting": "[11]; [16]", "value": "unchanged"}]}
{"smiles": "O=C(NCCCCCCCCNC(=O)C(Cl)Cl)C(Cl)Cl", "note": "[WIN18446]", "values": [{"measurement": "ATRA biosynthesis", "setting": "ALDHIA1 and ALDH1A2", "value": "efficiently block ATRA biosynthesis"}]}
